Source: ChEMBL document CHEMBL1201862, “PubChem BioAssay data set” (2004)
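Test compounds were applied to cells in 96-well plates for 48 hours at 5 doses. GI50 = concentration required for 50% inhibition of growth.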 Activity calls are given as the source filed them. Rule as the data show it: active = GI50 up to about 1.1 µM and inactive = higher.

Tests used:
Assay in all cases: NCI-60 cell line screen, 48 h
SNB-75 = test system: SNB-75
HCT-15 = test system: HCT-15
NCI-H226 = test system: NCI-H226
NCI/ADR-RES = test system: NCI/ADR-RES
SNB-19 = test system: SNB-19
UO-31 = test system: UO-31
LOX IMVI = test system: LOX IMVI
MDA-N = test system: MDA-N
MCF7 = test system: MCF7
HL-60 = test system: HL-60
HOP-62 = test system: HOP-62
SK-MEL-5 = test system: SK-MEL-5
A498 = test system: A498
HCT-116 = test system: HCT-116
OVCAR-5 = test system: OVCAR-5
SK-OV-3 = test system: SK-OV-3
SF-268 = test system: SF-268
PC-3 = test system: PC-3
COLO 205 = test system: COLO 205
Hs-578T = test system: Hs-578T

SMILES | GI50 (SNB-75) | GI50 (HCT-15) [µM] | GI50 (NCI-H226) | GI50 (NCI/ADR-RES) | GI50 (SNB-19) | GI50 (UO-31) | GI50 (LOX IMVI) | GI50 (MDA-N) | GI50 (MCF7) | GI50 (HL-60) | GI50 (HOP-62) | GI50 (SK-MEL-5) | GI50 (A498) | GI50 (HCT-116) | GI50 (OVCAR-5) | GI50 (SK-OV-3) | GI50 (SF-268) | GI50 (PC-3) | GI50 (COLO 205) | GI50 (Hs-578T)
Nc1nc(O)c2[nH]cnc2[n+]1[O-] | > 100 µM (inactive) | > 100 | > 100 µM (inactive) | > 100 µM (inactive) | > 100 µM (inactive) | > 100 µM (inactive) | > 100 µM (inactive) | > 100 µM (inactive) | 37.1 µM (inactive) | > 100 µM (inactive) | > 100 µM (inactive) | > 100 µM (inactive) | > 100 µM (inactive) | > 100 µM (inactive) | > 100 µM (inactive) | > 100 µM (inactive) | > 100 µM (inactive) | > 100 µM (inactive) | > 100 µM (inactive) | > 100 µM (inactive)
COc1cc2c(cc1OC)C1(COc3cc(O)c(O)c(O)c3C1=O)C2 (stereo not given) | 8.65 µM (inactive) | > 50 | > 50 µM (inactive) | > 50 µM (inactive) | > 50 µM (inactive) | > 50 µM (inactive) | > 50 µM (inactive) | > 50 µM (inactive) | 0.005 µM (active) | > 50 µM (inactive) | > 50 µM (inactive) | > 50 µM (inactive) | > 50 µM (inactive) | > 50 µM (inactive) | > 50 µM (inactive) | > 50 µM (inactive) | > 50 µM (inactive) | > 50 µM (inactive) | > 50 µM (inactive) | 16.4 µM (inactive)
C[C@]12CC[C@H](O)C[C@H]1CC[C@@H]1[C@@H]2CC[C@]2(C)[C@@H](C3=CC(=O)OC3)[C@@H](O)C[C@]12O [GITOXIGENIN] | 4.15 µM (inactive) | 2.58 | 3.12 µM (inactive) | 1.61 µM (inactive) | 4.45 µM (inactive) | 0.914 µM (active) | 2.9 µM (inactive) | 2.42 µM (inactive) | 2.05 µM (inactive) | 1.62 µM (inactive) | 1.11 µM (active) | 1.3 µM (inactive) | 2.72 µM (inactive) | 1.66 µM (inactive) | 2.81 µM (inactive) | 2.71 µM (inactive) | 0.845 µM (active) | 1.44 µM (inactive) | 2.61 µM (inactive) | 0.968 µM (active)
